Experiments:
Format in all cases: physicochemical
[1] = Solubility of polymorphs I and II in water; conditions: for Solubility in water: at 20° C. in water
[2] = Stability on storage under ICH conditions
Source text: Three batches of monohydrate I and one batch of monohydrate II were stored under ICH conditions. […] No decomposition products were observed, and no other parameters of the specification were changed substantially. On storage, the batches maintained their solid state.

[3] = Dissolution of the active compound during preparation of the pharmaceutical
Description: Differences between the two monohydrates I and II were observed during dissolution of the active compound. In general, the time required to get monohydrate I into solution is 45 minutes at 40-50° C.

[4] = 6 months at 40° C./75% relative atmospheric humidity
[5] = 36 months at 25° C./60% relative atmospheric humidity
[6] = 36 months at 30° C./75% relative atmospheric humidity

| SMILES | Solubility in water (in words) ([1]; water) | Solubility in water [1] [mg/mL] | Stability on storage [2, 4] | Stability on storage [2, 5] | Stability on storage [2, 6] | dissolution state during the time monohydrate I needs ([3]; 45 minutes at 40-50° C.) | time required to get into solution ([3]; at 40-50° C.) [min] |
| --- | --- | --- | --- | --- | --- | --- | --- |
| O=C([O-])CN1CCN(CC(=O)[O-])CCN(C(CO)C(O)CO)CCN(CC(=O)[O-])CC1.[Gd+3] (centres unmarked) [gadobutrol, Gd complex of N-(1-hydroxymethyl-2,3-dihydroxypropyl)-1,4,7-triscarboxymethyl-1,4,7,10-tetraazacyclododecane] | soluble in water in almost any ratio | – | – | – | – | – | – |
| O.O=C([O-])CN1CCN(CC(=O)[O-])CCN([C@H](CO)[C@H](O)CO)CCN(CC(=O)[O-])CC1.[Gd+3] [monohydrate II] | – | 922 ± 9 | remained unchanged | remained unchanged | remained unchanged | incompletely dissolved | – |
| O.O=C([O-])CN1CCN(CC(=O)[O-])CCN([C@H](CO)[C@H](O)CO)CCN(CC(=O)[O-])CC1.[Gd+3] [monohydrate I] | – | 1081 ± 2 | remained unchanged | remained unchanged | remained unchanged | – | 45 |
